Where “and” joins values, the source holds several entries; their conditions need not be identical. Equal entries are not always repeated. Structures can show the parent of a compound that is named as a salt.
Tested on: A-253 human salivary gland cell line
Experiment: iROS assay (DCFH-DA), H2O2-induced oxidative stress in A-253 cells
Assay type: cell-based
Conditions: for iROS assay - normalised data vs H2O2 (single values) / iROS assay - normalised data vs H2O2, Average / iROS assay - normalized data (single values) / iROS assay - normalized data, Average: H2O2(1 mM), 24 hours; for iROS assay - normalised data vs H2O2 (single values) / iROS assay - normalised data vs H2O2, Average: H2O2 alone = 1; for iROS assay - normalized data (single values) / iROS assay - normalized data, Average: unstimulated cells = 1; for Effect on iROS induced by H2O2 (in words): A-253 cells, 3-1000 μM
Procedure: Objective: The objective of this study was to investigate the effect of the test compound (CLX 156), on H2O2-induced oxidative stress in human submaxillary gland (HSG) cell line; A-253 cell line, in comparison with pilocarpine hydrochloride. Method: A-253 human salivary gland cell line was cultured in McCoy's 5a Medium Modified (ATCC) with 10% HI-FBS according to manufacturer's guidelines at 37° C. in the presence of 5% CO 2 in a humified incubator. The cells were sub-cultured using Trypsin-EDTA and 10,000 cells seeded into each 48 well cell culture plates with a media volume of 500 μl. The cells were allowed to grow for 48 hours. After 48 hours of culture, the cells were pre-incubated for 1 hour with the positive, reference and test compounds at the desired concentrations (see table 1) followed by the addition of 1 mM H2O2 to the culture media (without the removal of test compounds) to induce oxidative stress. The incubation was continued for 24 hours. After 24 hours of treatment with H2O2, the cells were used to assess iROS as described below. This is a cell-based assay for measuring hydroxyl, peroxyl, or other reactive oxygen species activity within a cell. The assay employs the cell-permeable fluorogenic probe 2′, 7′-Dichlorodihydrofluorescin diacetate (DCFH-DA). In brief, DCFH-DA is diffused into cells and is deacetylated by cellular esterases to non-fluorescent 2′,7′-Dichlorodihydrofluorescin (DCFH), which is rapidly oxidized to highly fluorescent 2′,7′-Dichlorodihydrofluorescein (DCF) by ROS. The fluorescence intensity is proportional to the ROS levels within the cell cytosol. OxiSelect˜ Intracellular ROS Assay Kit was used according to the manufacturer's guidelines (Cell Biolabs). In short, at Day 3 the cells were washed several times with PBS and then treated with 1X DCFH-DA in media and incubated for 30-60 minutes. After DCFH-DA treatment, the oxidative stress was induced by adding 1 mM H2O2 and the fluorescence signals measured after 24 hours using a plate reader.

Structure (SMILES)	iROS assay - normalised data vs H2O2, Average (3 μM)	iROS assay - normalized data, Average (3 μM)	iROS assay - normalised data vs H2O2, Average (10 μM)	iROS assay - normalized data, Average (10 μM)	iROS assay - normalised data vs H2O2, Average (30 μM)	iROS assay - normalized data, Average (30 μM)	iROS assay - normalised data vs H2O2, Average (100 μM)	iROS assay - normalized data, Average (100 μM)	iROS assay - normalised data vs H2O2, Average (300 μM)	iROS assay - normalized data, Average (300 μM)	iROS assay - normalised data vs H2O2, Average (1000 μM)	iROS assay - normalized data, Average (1000 μM)	Effect on iROS induced by H2O2 (in words)	further results
CC[C@@H]1C(=O)OC[C@@H]1Cc1cncn1C.O=C(O)CCCC[C@@H]1CCSS1 [CLX 156, Pilocarpine-R-(+)-lipoate]	0.8035	6.0747	0.7206	5.4481	0.7536	5.6971	0.7541	5.7012	0.6581	4.9751	0.4638	3.5062	significantly inhibited the iROS induced by H2O2 in A-253 cells in a concentration dependent manner	iROS assay - normalised data vs H2O2 (single values) (3 μM): 0.8216 and 0.8019 and 0.7870; iROS assay - normalized data (single values) (3 μM): 6.2116 and 6.0622 and 5.9502; iROS assay - normalised data vs H2O2 (single values) (10 μM): 0.7047 and 0.6981 and 0.7591; iROS assay - normalized data (single values) (10 μM): 5.3278 and 5.2780 and 5.7386; iROS assay - normalised data vs H2O2 (single values) (30 μM): 0.7294 and 0.7558 and 0.7755; iROS assay - normalized data (single values) (30 μM): 5.5145 and 5.7137 and 5.8631; iROS assay - normalised data vs H2O2 (single values) (100 μM): 0.7887 and 0.7377 and 0.7360; iROS assay - normalized data (single values) (100 μM): 5.9627 and 5.5768 and 5.5643; iROS assay - normalised data vs H2O2 (single values) (300 μM): 0.6224 and 0.6965 and 0.6553; iROS assay - normalized data (single values) (300 μM): 4.7054 and 5.2656 and 4.9544; iROS assay - normalised data vs H2O2 (single values) (1000 μM): 0.4676 and 0.4396 and 0.4841; iROS assay - normalized data (single values) (1000 μM): 3.5353 and 3.3237 and 3.6598; Inhibition of iROS compared with Pilocarpine HCL (in words) (A-253 salivary gland cell culture model): superior to Pilocarpine HCL in inhibiting the iROS induced by H2O2; IC50 (H2O2-induced iROS in A-253 cells, read-out: IC50 for Intracellular ROS (iROS) inhibition): 552 µM
CC[C@@H]1C(=O)OC[C@@H]1Cc1cncn1C [Pilocarpine HCl, pilocarpine hydrochloride, reference compound]	1.0401	7.8631	0.9018	6.8174	0.8952	6.7676	0.9226	6.9751	0.9265	7.0041	0.9040	6.8340	comparatively less in magnitude and showed no clear dose response	iROS assay - normalised data vs H2O2 (single values) (3 μM, hydrochloride): 0.9995 and 1.0274 and 1.0933; iROS assay - normalized data (single values) (3 μM, hydrochloride): 7.5560 and 7.7676 and 8.2656; iROS assay - normalised data vs H2O2 (single values) (10 μM, hydrochloride): 0.8825 and 0.8760 and 0.9468; iROS assay - normalized data (single values) (10 μM, hydrochloride): 6.6722 and 6.6224 and 7.1577; iROS assay - normalised data vs H2O2 (single values) (30 μM, hydrochloride): 0.8941 and 0.8332 and 0.9583; iROS assay - normalized data (single values) (30 μM, hydrochloride): 6.7593 and 6.2988 and 7.2448; iROS assay - normalised data vs H2O2 (single values) (100 μM, hydrochloride): 0.9550 and 0.9336 and 0.8793; iROS assay - normalized data (single values) (100 μM, hydrochloride): 7.2199 and 7.0581 and 6.6473; iROS assay - normalised data vs H2O2 (single values) (300 μM, hydrochloride): 0.9040 and 0.8858 and 0.9896; iROS assay - normalized data (single values) (300 μM, hydrochloride): 6.8340 and 6.6971 and 7.4813; iROS assay - normalised data vs H2O2 (single values) (1000 μM, hydrochloride): 0.8924 and 0.8842 and 0.9352; iROS assay - normalized data (single values) (1000 μM, hydrochloride): 6.7469 and 6.6846 and 7.0705

From patent US20240082162A1, “PHARMACEUTICAL FORMULATIONS OF PILOCARPINE R-(+)-LIPOATE” (Cellix Bio Private Limited, priority 2020, published 2024)
